The text below walks through data of the supplement of paper PMC11208160.
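Further: IS621 recombinase and bridge RNA in Escherichia coli cells.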

A short description of this data set: recombinant barcode read abundance after kanamycin selection (control-corrected) (log10(CPM+1)); higher = more efficient recombination; sequences stand for … in AGTGCAGAGAAAATCGGCCAGTTTTCTCTGCCTGCAGTCCGCATGCCGT…AGATTTATGCAGCGGACTGCCTTTCTCCCAAAGTGATAAACCGGACAGTATCATGGACCGGTTTTCCCGGTAATCCGTATTTGCAAGGTTGGTTTCACT; site = the 11-nt target. The method, boiled down: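 Recombination efficiency was calculated from barcode counts at recombinant junctions, normalized to counts per million, averaged and corrected by the control. Each value is given as log10(CPM+1). The constructs were Gibson-cloned oligos (promoter, target, barcode, J23119-driven first 104 bridge RNA bases) in a vector with the remaining 73 bp and a T7-inducible recombinase, co-electroporated into E. coli with a donor plasmid and plated in duplicate on chloramphenicol/ampicillin LB agar (control) or chloramphenicol/ampicillin/kanamycin with 0.1 mM IPTG.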
For “GACGCTTCTTGGGTTCTAACCTGTTGCAT (site GACGCTTCTAT)”, the “recombinant barcode read abundance (log10)” value stood at 0.254. In the case of “GACGTAACTTGGGTTCTAACCTGTTGCAG (site AGGAAGGCTTG)” it was 0.459. In the case of “GACGTAACTTGGGTTCTAACCTGTTGCAG (site GACGTAACTCT)”, the “recombinant barcode read abundance (log10)” value came to 1.15. Consider “GACGTAACTTGGGTTCTAACCTGTTGCCT (site GAAGTAACTAG)”, for which the “recombinant barcode read abundance (log10)” value came out at 0.0422. On to “GACGTAACTTGGGTTCTAACCTGTTGCCT (site GACGTAACTAG)”, for which the “recombinant barcode read abundance (log10)” value worked out at 0.508. Turning to “GACGTAACTTGGGTTCTAACCTGTTGCCT (site GAGGTAACTAG)”, the “recombinant barcode read abundance (log10)” value was 0.0292. On to “GACGTAACTTGGGTTCTAACCTGTTGCCT (site GATGTAACTAG)”, for which the “recombinant barcode read abundance (log10)” value was 0.163. The same measure for “GACTAGTCTTGGGTTCTAACCTGTTGCAG (site CGGGGCCCTAA)”: 0.156. In the case of “GACTAGTCTTGGGTTCTAACCTGTTGCAG (site GACTAGTCTCT)” it was 2.22; in that of “GACTATCCTTGGGTTCTAACCTGTTGCCG (site ACTATGACTAA)”, 0.0127; in that of “GACTATCCTTGGGTTCTAACCTGTTGCCG (site GACTATCCTCG)”, 0.739. For the sequence “GACTATGCTTGGGTTCTAACCTGTTGCCT (site GACTATGCTAG)”, the “recombinant barcode read abundance (log10)” value was determined as 0.461. Take “GACTATGCTTGGGTTCTAACCTGTTGCCT (site GCCTATGCTAG)”: the “recombinant barcode read abundance (log10)” value was found to be 0.291. Take “GACTATGCTTGGGTTCTAACCTGTTGCCT (site GGCTATGCTAG)”: the “recombinant barcode read abundance (log10)” value came out at 0.0633.

With “GACTATGCTTGGGTTCTAACCTGTTGCCT (site GTCTATGCTAG)”, the “recombinant barcode read abundance (log10)” value was 0.00989. In the case of “GACTATTCTTGGGTTCTAACCTGTTGCCT (site GAATATTCTAG)”, the “recombinant barcode read abundance (log10)” value is 0.0378.

For “GACTATTCTTGGGTTCTAACCTGTTGCCT (site GACTATTCTAG)”, the “recombinant barcode read abundance (log10)” value is 0.212. In the case of “GACTATTCTTGGGTTCTAACCTGTTGCCT (site GAGTATTCTAG)” it was 0.106. The same measure for “GACTATTCTTGGGTTCTAACCTGTTGCCT (site GATTATTCTAG)”: 0.178. In the case of “GACTCTACTTGGGTTCTAACCTGTTGCTT (site GAATCTACTAA)” it was 0.0131; in that of “GACTCTACTTGGGTTCTAACCTGTTGCTT (site GACTCTACTAA)”, 0.65; in that of “GACTCTACTTGGGTTCTAACCTGTTGCTT (site GAGTCTACTAA)”, 0.068. For the sequence “GACTCTACTTGGGTTCTAACCTGTTGCTT (site GATTCTACTAA)”, the “recombinant barcode read abundance (log10)” value is 0.0521. In the case of “GACTCTCCTTGGGTTCTAACCTGTTGCAT (site GACTCTCCTAA)” it was 0.00987; in that of “GACTCTCCTTGGGTTCTAACCTGTTGCAT (site GACTCTCCTAC)”, 1.45.

On to “GACTCTCCTTGGGTTCTAACCTGTTGCAT (site GACTCTCCTAG)”, for which the “recombinant barcode read abundance (log10)” value turned out to be 0.186. The same measure for “GACTCTCCTTGGGTTCTAACCTGTTGCAT (site GACTCTCCTAT)”: 0.387; for “GACTCTCCTTGGGTTCTAACCTGTTGCGT (site GACTCTCCTAA)”: 0.103; for “GACTCTCCTTGGGTTCTAACCTGTTGCGT (site GACTCTCCTAC)”: 1.75. The same measure for “GACTCTCCTTGGGTTCTAACCTGTTGCGT (site GACTCTCCTAG)”: 0. Turning to “GACTCTCCTTGGGTTCTAACCTGTTGCGT (site GACTCTCCTAT)”, the “recombinant barcode read abundance (log10)” value was 0.321. Consider “GACTGCCCTTGGGTTCTAACCTGTTGCCT (site GACTGCCCTAG)”, for which the “recombinant barcode read abundance (log10)” value was determined as 0.166. The same measure for “GACTGCCCTTGGGTTCTAACCTGTTGCCT (site GCCTGCCCTAG)”: 0.164; for “GACTGCCCTTGGGTTCTAACCTGTTGCCT (site GGCTGCCCTAG)”: 0.0269; for “GACTGCCCTTGGGTTCTAACCTGTTGCCT (site GTCTGCCCTAG)”: 0.129. In the case of “GACTGGCCTTGGGTTCTAACCTGTTGCTT (site GACTGGCCTAA)” it was 0.389.

For the sequence “GACTGGCCTTGGGTTCTAACCTGTTGCTT (site GACTGGGCTCA)”, the “recombinant barcode read abundance (log10)” value was 0.154. In the case of “GACTTGACTTGGGTTCTAACCTGTTGCCT (site GACTTGACTAG)” it was 1.13; in that of “GACTTGACTTGGGTTCTAACCTGTTGCCT (site GACTTGCCTAG)”, 0.0736. As for “GACTTGACTTGGGTTCTAACCTGTTGCCT (site GACTTGGCTAG)”, the “recombinant barcode read abundance (log10)” value worked out at 0.171.

Consider “GACTTGACTTGGGTTCTAACCTGTTGCCT (site GACTTGTCTAG)”, for which the “recombinant barcode read abundance (log10)” value worked out at 0.0657. In the case of “GACTTGTCTTGGGTTCTAACCTGTTGCCT (site GACTTGACTAG)” it was 0.0686; in that of “GACTTGTCTTGGGTTCTAACCTGTTGCCT (site GACTTGCCTAG)”, 0.0458. Consider “GACTTGTCTTGGGTTCTAACCTGTTGCCT (site GACTTGGCTAG)”, for which the “recombinant barcode read abundance (log10)” value was determined as 0.0443. In the case of “GACTTGTCTTGGGTTCTAACCTGTTGCCT (site GACTTGTCTAG)” it was 1.41; in that of “GACTTTCCTTGGGTTCTAACCTGTTGCAT (site GACTTACCTAT)”, 0.01; in that of “GACTTTCCTTGGGTTCTAACCTGTTGCAT (site GACTTCCCTAT)”, 0.272. In the case of “GACTTTCCTTGGGTTCTAACCTGTTGCAT (site GACTTGCCTAT)” it was 0.0607. On to “GACTTTCCTTGGGTTCTAACCTGTTGCAT (site GACTTTCCTAT)”, for which the “recombinant barcode read abundance (log10)” value is 0.101. In the case of “GAGAACACTTGGGTTCTAACCTGTTGCCT (site AAGAACACTAG)” it was 1.09; in that of “GAGAACACTTGGGTTCTAACCTGTTGCCT (site CAGAACACTAG)”, 0.439; in that of “GAGAACACTTGGGTTCTAACCTGTTGCCT (site GAGAACACTAG)”, 2.01. In the case of “GAGAACACTTGGGTTCTAACCTGTTGCCT (site TAGAACACTAG)” it was 0.852; in that of “GAGAAGCCTTGGGTTCTAACCTGTTGCCT (site AAGAAGCCTAG)”, 1.17; in that of “GAGAAGCCTTGGGTTCTAACCTGTTGCCT (site CAGAAGCCTAG)”, 0.409. In the case of “GAGAAGCCTTGGGTTCTAACCTGTTGCCT (site GAGAAGCCTAG)” it was 2.12; in that of “GAGAAGCCTTGGGTTCTAACCTGTTGCCT (site TAGAAGCCTAG)”, 0.639; in that of “GAGAGAGCTTGGGTTCTAACCTGTTGCAT (site GAGAGAGCTAT)”, 1.41. Consider “GAGAGAGCTTGGGTTCTAACCTGTTGCAT (site GAGCGAGCTAT)”, for which the “recombinant barcode read abundance (log10)” value stood at 0.193. In the case of “GAGAGAGCTTGGGTTCTAACCTGTTGCAT (site GAGGGAGCTAT)” it was 0.0621; in that of “GAGAGAGCTTGGGTTCTAACCTGTTGCAT (site GAGTGAGCTAT)”, 0.14. The same measure for “GAGAGGTCTTGGGTTCTAACCTGTTGCCT (site GAGAGGTCTAA)”: 0.298. Consider “GAGAGGTCTTGGGTTCTAACCTGTTGCCT (site GAGAGGTCTAC)”, for which the “recombinant barcode read abundance (log10)” value worked out at 0.0681.

In the case of “GAGAGGTCTTGGGTTCTAACCTGTTGCCT (site GAGAGGTCTAG)”, the “recombinant barcode read abundance (log10)” value was determined as 1.56. “GAGAGGTCTTGGGTTCTAACCTGTTGCCT (site GAGAGGTCTAT)”: the “recombinant barcode read abundance (log10)” value was determined as 0.203. As to “GAGATGTCTTGGGTTCTAACCTGTTGCCT (site GAGATGTCTAG)”, the “recombinant barcode read abundance (log10)” value amounted to 2.43. For “GAGATGTCTTGGGTTCTAACCTGTTGCCT (site GCGATGTCTAG)”, the “recombinant barcode read abundance (log10)” value came out at 0.147. With “GAGATGTCTTGGGTTCTAACCTGTTGCCT (site GGGATGTCTAG)”, the “recombinant barcode read abundance (log10)” value is 0.266. For the sequence “GAGATGTCTTGGGTTCTAACCTGTTGCCT (site GTGATGTCTAG)”, the “recombinant barcode read abundance (log10)” value amounted to 0.577. In the case of “GAGCACCCTTGGGTTCTAACCTGTTGCCA (site GAGCACCCTTG)” it was 1.77. The same measure for “GAGCACCCTTGGGTTCTAACCTGTTGCCA (site GAGCTCACTTG)”: 0.0464; for “GAGCAGTCTTGGGTTCTAACCTGTTGCCT (site GAGAAGTCTAG)”: 0; for “GAGCAGTCTTGGGTTCTAACCTGTTGCCT (site GAGCAGTCTAG)”: 2.4. As for “GAGCAGTCTTGGGTTCTAACCTGTTGCCT (site GAGGAGTCTAG)”, the “recombinant barcode read abundance (log10)” value is 0.117. Consider “GAGCAGTCTTGGGTTCTAACCTGTTGCCT (site GAGTAGTCTAG)”, for which the “recombinant barcode read abundance (log10)” value amounted to 0.214.

Regarding “GAGCCACCTTGGGTTCTAACCTGTTGCTG (site GAGCCACCTCA)”, the “recombinant barcode read abundance (log10)” value worked out at 1.58. Turning to “GAGCCACCTTGGGTTCTAACCTGTTGCTG (site GAGCCGCCTCG)”, the “recombinant barcode read abundance (log10)” value was 0.104.
